Converted amounts (≈) assume the structure as drawn. Read-outs that look alike come from different tables or passages of the source.
How the values were obtained:
[1] = molecular target: recombinant E. coli BioA (Escherichia coli, UniProt P12995); test: BioA inhibition through a feeding assay of a bioA auxotroph; assay type: biochemical; conditions: relative to DMSO control
Protocol: To determine if the step catalyzed by BioA was the target of this inhibitor, the inhibitory activity of MAC-0013772 against recombinant E. coli BioA was assayed through a feeding assay of a bioA auxotroph.

[2] = test system: E. coli MG1655; test: Minimum inhibitory concentration (MIC) determination; conditions: for MIC: Escherichia coli
Protocol: The MIC values were determined in liquid minimal media and minimal media supplemented with amino acids, vitamins and nucleobases.
A single colony of E. coli MG1655 was grown overnight in 5 ml of M9 minimal media. The saturated culture was diluted 1/50 in fresh minimal media and allowed to grow until the OD600 reached ˜0.4. […] After mixing of the bacterial culture with the compounds, the OD600 of the plates was read using Envision to account for background absorbance. The plates were then incubated in a 37° C. stationary incubator for 16 hours before measuring their OD600. After subtracting any background absorbance contributed by colored or precipitated compounds, the MIC was defined as the lowest concentration of antibiotic that inhibits visible growth.

[3] = test system: Mycobacteria smegmatis; test: MIC against Mycobacteria smegmatis in absence and presence of biotin; assay type: cell-based
[4] = test system: E. coli MG1655; test: Metabolic suppression profiling (ChemArray); assay type: cell-based; conditions: 4× MIC in M9 minimal media; for metabolic suppression profile: metabolites that suppress growth inhibitory activity: ChemArray
[5] = MG1655, 16 h, read-out: MIC +bio, presence of 2 nM of biotin
[6] = MG1655, read-out: MIC −bio, absence of biotin
[7] = absence of biotin, read-out: MIC −bio
[8] = presence of 2 nM of biotin, read-out: MIC +bio

Sequence of recombinant E. coli BioA (P12995 whole entry): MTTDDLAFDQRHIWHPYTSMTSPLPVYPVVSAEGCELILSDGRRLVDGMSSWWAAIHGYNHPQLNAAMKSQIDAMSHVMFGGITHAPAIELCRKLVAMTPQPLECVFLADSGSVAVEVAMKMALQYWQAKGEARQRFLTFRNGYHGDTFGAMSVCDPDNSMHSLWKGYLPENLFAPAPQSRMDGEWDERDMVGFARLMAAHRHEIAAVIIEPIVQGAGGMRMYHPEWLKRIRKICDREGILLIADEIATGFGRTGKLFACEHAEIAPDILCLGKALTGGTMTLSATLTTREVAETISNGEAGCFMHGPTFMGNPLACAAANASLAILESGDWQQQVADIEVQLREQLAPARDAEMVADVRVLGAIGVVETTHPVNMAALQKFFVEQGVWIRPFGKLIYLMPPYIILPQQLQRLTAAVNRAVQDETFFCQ

SMILES	inhibition at 1 µM [1] [%]	inhibition at 10 µM [1] [%]	MIC [2, 5] [µg/mL]	MIC [2, 6] [µg/mL]	MIC [3, 7] [µg/mL]	MIC [3, 8] [µg/mL]	antibacterial potency against M. smegmatis compared with MAC-0013772 (in words) [3]	antibacterial activity against E. coli (in words) [2]	suppression of growth inhibition in the presence of biotin (in words) ([2]; presence of biotin)	MIC ([2]; MG1655, read-out: MIC −bio) [µg/mL]	MIC ([3]; read-out: MIC +bio) [µg/mL]	MIC ([3]; read-out: MIC −bio) [µg/mL]	metabolic suppression profile: metabolites that suppress growth inhibitory activity [4]	suppression of growth inhibitory activity by glycine [4]
NNC(=O)CSc1cccc([N+](=O)[O-])c1 [Compound 1a, 2-(3-nitrophenylthio)acetohydrazide]	42	84	> 256	256 (≈ 1130 µM)	16	> 256								
NNC(=O)CSc1ccc([N+](=O)[O-])cc1 [Compound 1b, 2-(4-nitrophenylthio)acetohydrazide]	66	100			4	> 256	potencies similar to that of MAC-0013772							
NNC(=O)CSc1ccccc1 [Compound 1c, 2-(phenylthio)acetohydrazide]	49	100	> 256	64 (≈ 351 µM)	4	> 256	potencies similar to that of MAC-0013772							
NNC(=O)CSc1ccccc1F [Compound 1d, 2-(2-fluorophenylthio)acetohydrazide]	36	100	> 256	32 (≈ 160 µM)	4	> 256	potencies similar to that of MAC-0013772							
NNC(=O)CSc1ccccc1Cl [Compound 1e, 2-(2-chlorophenylthio) acetohydrazide]	63	100	> 256	16 (≈ 73.8 µM)	4	> 256	potencies similar to that of MAC-0013772	does not gravely alter antibacterial activity						
NNC(=O)CSc1ccccc1O [Compound 1f, 2-(2-hydroxyphenylthio)acetohydrazide]	32	70	256	256 (≈ 1290 µM)	32	256								
NNC(=O)CSc1ccccc1N [Compound 1g, 2-(2-aminophenylthio)acetohydrazide]	58	100	> 256	256 (≈ 1300 µM)	32	256								
Cc1ccccc1SCC(=O)NN [Compound 1h, 2-(o-tolylthio)acetohydrazide]	81	100	> 256	16 (≈ 81.5 µM)	4	> 256	potencies similar to that of MAC-0013772	does not gravely alter antibacterial activity						
COc1ccccc1SCC(=O)NN [Compound 1i, 2-(2-methoxyphenylthio)acetohydrazide]	65	100	> 256	128 (≈ 603 µM)	16	> 256								
CC(=O)NNC(=O)CSc1ccc([N+](=O)[O-])cc1 [Compound 1j]	0	0	> 256	> 256	> 256	> 256								
CCC(=O)CSc1ccccc1[N+](=O)[O-] [Compound 1k]	0	0	> 256	> 256	> 256	> 256								
NC(=O)CSc1ccccc1[N+](=O)[O-] [Compound 1l]	0	0	> 256	> 256	128	> 256								
CC(=O)CSc1ccccc1[N+](=O)[O-] [Compound 1m]	0	0	> 256	> 256	256	256								
O=C(O)CSc1ccccc1[N+](=O)[O-] [Compound 1n]	0	0	> 256	> 256	> 256	> 256								
CSCC(=O)NN [Compound 2a]	50	64	64	64 (≈ 533 µM)	32	32			not suppressed					
NNC(=O)CS [Compound 2b]	20	34	256	256 (≈ 2410 µM)	32	32								
CCCC(=O)NN [Compound 2c]	1	40								> 256	64	64		
CCC(=O)NN [Compound 2d]	0	8	> 256	> 256	64	64								
NNC(=O)C1Cc2ccccc2S1 (stereo not drawn) [Compound 2f, 2,3-dihydrobenzo[b]thiophene-2-carbohydrazide]	15	69	> 256	> 256	64	> 256								
NNC(=O)CSCc1ccccc1 [Compound 2g, 2-(benzylthio)acetohydrazide]	60	100	> 256	64 (≈ 326 µM)	8	> 256	potencies similar to that of MAC-0013772							
NNC(=O)CSc1ccc2ccccc2c1 [Compound 2h, 2-(naphthalen-2-ylthio)acetohydrazide]	71	100	> 256	> 256	32	> 256								
NNC(=O)CSc1ccncc1 [Compound 2i, 2-(pyridin-4-ylthio)acetohydrazide]	32	77	> 256	64 (≈ 349 µM)	8	128	potencies similar to that of MAC-0013772							
NNC(=O)Cc1ccccc1[N+](=O)[O-] [Compound 2j]	0	29	> 256	> 256	256	> 256								
N[C@@H]1CONC1=O [D-cycloserine, reference compound]													suppressed by the addition of either D/L-alanine or glycine	strongly suppressed
CN(C)CCC(=O)c1ccc2c(c1)OCCO2 [MAC-0161738, 1-(2,3-dihydrobenzo[b][1,4]dioxin-6-yl)-3-(dimethylamino)propan-1-one]														strongly suppressed
O=C(CCN1CCCCC1)c1ccc2c(c1)OCCCO2 [MAC-0162065, 1-(3,4-dihydro-2H-benzo[b][1,4]dioxepin-7-yl)-3-(piperidin-1-yl)propan-1-one]														strongly suppressed
COc1cc(Cc2cnc(N)nc2N)cc(OC)c1OC [Trimethoprim, reference compound]													only be suppressed by providing a mixture of all supplements or at least a mixture of amino acids and nucleobases	
